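Grown in 96-well plates, cells were treated for 48 hours with each compound at five concentrations. Insufficient inhibition: endpoint recorded as highest concentration tested. GI50: concentration for 50% inhibition of growth. TGI marks complete inhibition of growth.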
Assays:
Assay in all cases: NCI anticancer screen, dose series, 48 h
PC-3 prostate = system: PC-3 prostate
HOP-92 NSCLC = system: HOP-92 NSCLC
M14 melanoma = system: M14 melanoma
NCI-H226 lung = system: NCI-H226 lung
UACC-257 melanoma = system: UACC-257 melanoma
CAKI-1 renal = system: CAKI-1 renal
OVCAR-5 ovarian = system: OVCAR-5 ovarian
COLO 205 colon = system: COLO 205 colon
SR leukemia = system: SR leukemia
DU-145 prostate = system: DU-145 prostate
A498 renal = system: A498 renal
TK-10 renal = system: TK-10 renal
CCRF-CEM leukemia = system: CCRF-CEM leukemia
MDA-MB-231 breast = system: MDA-MB-231 breast
HCT-116 colon = system: HCT-116 colon
HCC-2998 colon = system: HCC-2998 colon
SK-MEL-28 melanoma = system: SK-MEL-28 melanoma
BT-549 breast = system: BT-549 breast
RPMI-8226 leukemia = system: RPMI-8226 leukemia
HL-60(TB) leukemia = system: HL-60(TB) leukemia
A549 NSCLC = system: A549 NSCLC
HS 578T breast = system: HS 578T breast
NCI/ADR-RES ovarian = system: NCI/ADR-RES ovarian
SW-620 colon = system: SW-620 colon
SF-268 CNS = system: SF-268 CNS
OVCAR-3 ovarian = system: OVCAR-3 ovarian
SK-MEL-5 melanoma = system: SK-MEL-5 melanoma
HT29 colon = system: HT29 colon
UACC-62 melanoma = system: UACC-62 melanoma
786-0 renal = system: 786-0 renal
SN12C renal = system: SN12C renal
MCF7 breast = system: MCF7 breast
MOLT-4 leukemia = system: MOLT-4 leukemia
SF-295 CNS = system: SF-295 CNS
OVCAR-8 ovarian = system: OVCAR-8 ovarian
KM12 colon = system: KM12 colon
ACHN renal = system: ACHN renal
RXF 393 renal = system: RXF 393 renal
UO-31 renal = system: UO-31 renal
T-47D breast = system: T-47D breast
LOX IMVI melanoma = system: LOX IMVI melanoma
SNB-19 CNS = system: SNB-19 CNS
SK-MEL-2 melanoma = system: SK-MEL-2 melanoma
NCI-H522 lung = system: NCI-H522 lung
NCI-H460 lung = system: NCI-H460 lung
MDA-MB-435 = system: MDA-MB-435
IGROV1 ovarian = system: IGROV1 ovarian
HOP-62 NSCLC = system: HOP-62 NSCLC
K-562 leukemia = system: K-562 leukemia
SF-539 CNS = system: SF-539 CNS
U251 CNS = system: U251 CNS
HCT-15 colon = system: HCT-15 colon
EKVX NSCLC = system: EKVX NSCLC
NCI-H23 lung = system: NCI-H23 lung

`ClCCN(CCCl)c1ccc(CNCCCNCc2ccc(N(CCCl)CCCl)cc2)cc1` was tested, and the TGI (PC-3 prostate) was 26.5 µM, the TGI (HOP-92 NSCLC) was 26.6 µM and the TGI (M14 melanoma) was > 100 µM. It also gave a TGI (NCI-H226 lung) of 30.3 µM, a TGI (UACC-257 melanoma) of 4.71 µM and a TGI (CAKI-1 renal) of 27.2 µM. The TGI (OVCAR-5 ovarian) was > 100 µM, the TGI (COLO 205 colon) was 3.29 µM and the TGI (SR leukemia) was 1.29 µM. The TGI (DU-145 prostate) was > 100 µM, the TGI (A498 renal) was 33.8 µM and the TGI (TK-10 renal) was 5.25 µM. The TGI (CCRF-CEM leukemia) was > 100 µM, the TGI (MDA-MB-231 breast) was 5.37 µM and the TGI (HCT-116 colon) was > 100 µM. It also gave a TGI (HCC-2998 colon) of 5.2 µM, a TGI (SK-MEL-28 melanoma) of 3.18 µM and a TGI (BT-549 breast) of 9.85 µM. The TGI (RPMI-8226 leukemia) was > 100 µM, the TGI (HL-60(TB) leukemia) was 2.67 µM and the TGI (A549 NSCLC) was > 100 µM. The TGI (HS 578T breast) was 7.81 µM, the TGI (NCI/ADR-RES ovarian) was > 100 µM and the TGI (SW-620 colon) was > 100 µM.
With `COc1cc(/C=C2\C[C@H]3[C@@H]4CC=C5C[C@@H](OC(C)=O)CC[C@]5(C)[C@H]4CC[C@]3(C)[C@H]2OC(C)=O)ccc1OCCN1CCCCC1` the GI50 (SF-268 CNS) was 35.7 µM, the TGI (SF-268 CNS) was > 50 µM and the GI50 (PC-3 prostate) was 24.7 µM. For the same compound, the TGI (PC-3 prostate) was > 50 µM, the GI50 (HOP-92 NSCLC) was 27.6 µM and the TGI (HOP-92 NSCLC) was > 50 µM. The GI50 (OVCAR-3 ovarian) was 18.5 µM, the TGI (OVCAR-3 ovarian) was > 50 µM and the GI50 (SK-MEL-5 melanoma) was 8.16 µM. It also gave a TGI (SK-MEL-5 melanoma) of 15.5 µM, a GI50 (M14 melanoma) of 2.46 µM and a TGI (M14 melanoma) of 10 µM. For the same compound, the GI50 (NCI-H226 lung) was > 50 µM, the TGI (NCI-H226 lung) was > 50 µM and the GI50 (HT29 colon) was 23.2 µM. The TGI (HT29 colon) was > 50 µM, the GI50 (UACC-62 melanoma) was 8.14 µM and the TGI (UACC-62 melanoma) was 15 µM. It also gave a GI50 (UACC-257 melanoma) of 5.77 µM, a TGI (UACC-257 melanoma) of 13.6 µM and a GI50 (786-0 renal) of 12.3 µM. The TGI (786-0 renal) was 21.3 µM, the GI50 (SN12C renal) was 10.8 µM and the TGI (SN12C renal) was 27.1 µM. The GI50 (MCF7 breast) was 10.6 µM, the TGI (MCF7 breast) was 25 µM and the GI50 (CAKI-1 renal) was 15.6 µM. The TGI (CAKI-1 renal) was > 50 µM, the GI50 (OVCAR-5 ovarian) was 23.4 µM and the TGI (OVCAR-5 ovarian) was > 50 µM. For the same compound, the GI50 (COLO 205 colon) was 16.3 µM, the TGI (COLO 205 colon) was > 50 µM and the GI50 (MOLT-4 leukemia) was > 50 µM. The TGI (MOLT-4 leukemia) was > 50 µM, the GI50 (SF-295 CNS) was 9.57 µM and the TGI (SF-295 CNS) was 24.1 µM. For the same compound, the GI50 (OVCAR-8 ovarian) was 13 µM, the TGI (OVCAR-8 ovarian) was > 50 µM and the GI50 (DU-145 prostate) was 15.2 µM. It also gave a TGI (DU-145 prostate) of 44.4 µM, a GI50 (KM12 colon) of 14.4 µM and a TGI (KM12 colon) of 46.1 µM. It also gave a GI50 (ACHN renal) of 9.28 µM, a TGI (ACHN renal) of 16.8 µM and a GI50 (TK-10 renal) of 10.5 µM. The TGI (TK-10 renal) was 19.1 µM, the GI50 (MDA-MB-231 breast) was 11 µM and the TGI (MDA-MB-231 breast) was 25.4 µM. It also gave a GI50 (HCC-2998 colon) of 10.9 µM, a TGI (HCC-2998 colon) of 19.9 µM and a GI50 (RXF 393 renal) of 6.94 µM. The TGI (RXF 393 renal) was 18.8 µM, the GI50 (SK-MEL-28 melanoma) was 22.5 µM and the TGI (SK-MEL-28 melanoma) was > 50 µM. The GI50 (UO-31 renal) was 11.1 µM, the TGI (UO-31 renal) was 29.1 µM and the GI50 (T-47D breast) was > 50 µM. For the same compound, the TGI (T-47D breast) was > 50 µM, the GI50 (LOX IMVI melanoma) was 9.63 µM and the TGI (LOX IMVI melanoma) was 18.5 µM. For the same compound, the GI50 (SNB-19 CNS) was 46.2 µM, the TGI (SNB-19 CNS) was > 50 µM and the GI50 (SK-MEL-2 melanoma) was 20.1 µM. For the same compound, the TGI (SK-MEL-2 melanoma) was > 50 µM, the GI50 (NCI-H522 lung) was > 50 µM and the TGI (NCI-H522 lung) was > 50 µM. The GI50 (NCI-H460 lung) was 15.8 µM, the TGI (NCI-H460 lung) was > 50 µM and the GI50 (MDA-MB-435) was 14.4 µM. The TGI (MDA-MB-435) was 44.4 µM, the GI50 (IGROV1 ovarian) was 40 µM and the TGI (IGROV1 ovarian) was > 50 µM. The GI50 (HL-60(TB) leukemia) was 40.7 µM, the TGI (HL-60(TB) leukemia) was > 50 µM and the GI50 (HOP-62 NSCLC) was 8.96 µM. For the same compound, the TGI (HOP-62 NSCLC) was 27.1 µM, the GI50 (A549 NSCLC) was 19.3 µM and the TGI (A549 NSCLC) was > 50 µM. For the same compound, the GI50 (HS 578T breast) was 12.1 µM, the TGI (HS 578T breast) was 42.8 µM and the GI50 (K-562 leukemia) was 12.8 µM. For the same compound, the TGI (K-562 leukemia) was 43.2 µM, the GI50 (SF-539 CNS) was 9.56 µM and the TGI (SF-539 CNS) was 20.6 µM. It also gave a GI50 (U251 CNS) of 8.76 µM, a TGI (U251 CNS) of 16.5 µM and a GI50 (HCT-15 colon) of 7.59 µM. For the same compound, the TGI (HCT-15 colon) was 15.8 µM, the GI50 (NCI/ADR-RES ovarian) was > 50 µM and the TGI (NCI/ADR-RES ovarian) was > 50 µM. The GI50 (EKVX NSCLC) was > 50 µM, the TGI (EKVX NSCLC) was > 50 µM and the GI50 (NCI-H23 lung) was > 50 µM. For the same compound, the TGI (NCI-H23 lung) was > 50 µM, the GI50 (SW-620 colon) was 11.2 µM and the TGI (SW-620 colon) was > 50 µM.
